Converted amounts (≈) assume the structure as drawn.
Test system: Proteus mirabilis (DSM 4479)
Test: MIC by broth microdilution (CLSI)
Assay type: cell-based
Settings: DSM4479
Procedure: Minimum Inhibitory Concentrations (MICs) versus Escherichia coli (NCTC 13441) and Klebsiella pneumoniae (NCTC 13438) (planktonic bacteria) were determined by the broth microdilution procedure in line with the guidelines of the Clinical and Laboratory Standards Institute (Clinical and Laboratory Standards Institute. Methods for Dilution Antimicrobial Susceptibility Tests for Bacteria That Grow Aerobically, Approved Standard-Eleventh Edition, CLSI document M07, 11 Jan. 2018). The broth dilution method involved a two-fold serial dilution of compounds in 96-well microtitre plates, giving a final concentration range of 0.39-200 μM and a maximum final concentration of 2% DMSO. The bacterial strains tested were Escherichia coli (NCTC 13441) and Klebsiella pneumoniae (NCTC 13438). Strains were grown in cation-adjusted Müller-Hinton broth or on Luria Bertani agar at 37° C. in an ambient atmosphere. The MIC (μM) was determined as the lowest concentration of compound that inhibits growth following a 20-24 hour incubation period.
Minimum Inhibitory Concentrations (MICs) versus Proteus mirabilis (DSM 4479) were determined for compound (I) and comparative compounds (II) and (III) using the methodology outlined above.

Q: For Cc1cnccc1-c1[nH]c(N)nc1-c1ccc2c(c1)N(C(=O)C(C)(C)N)CCO2 [Compound (I), 2-amino-1-(6-(2-amino-5-(3-methylpyridin-4-yl)-1H-imidazol-4-yl)-2,3-dihydro-4H-benzo[b][1,4]oxazin-4-yl)-2-methylpropan-1-one], which MIC is on record?
A: 25 µM (≈ 9.81 µg/mL)

From patent publication US20240228474A1, “ANTIBACTERIAL COMPOUND” (DISCUVA LIMITED, priority 2021, published 2024)
